Test results taken from US7199286B2, “Plant-derived novel pathogen and SAR-induction chemical induced promoters, and fragments thereof” (Syngenta Participations AG, priority 1999, dated 2007).

System: NI16 promoter fragment 544 bp
Assay: GUS florescence assay of promoter::GUS plants after SA application, NI16 544 bp fragment
Assay type: in vivo, Arabidopsis
Details: 5 mM SA spray
Description: A binary promoter::reporter plasmid (pNOV2374) for Arabidopsis transformation was constructed. The regulatory/promoter sequence was fused to the GUS reporter gene (Jefferson et al. (1987) EMBO J 6: 3901-3907) by recombination using […] Technology according to the manufacturer's protocol as described in the Instruction Manual (LifeTechnologies, Rockville, Md.). The construct was then transformed into Agrobacterium tumefaciens strains by electroporation. pNOV2374 is a binary vector with a VS1 origin of replication, a copy of the Agrobacterium virg gene in the backbone, and a Basta® resistance selectable marker cassette between the left and right border sequences of the T-DNA. The Basta® selectable marker cassette comprises the Agrobacterium tumefaciens manopine synthase promoter (AtMas) (Barker et al., Plant Mol. Biol. 2, 335-350 (1983)) operably linked to the gene encoding Basta® resistance (i.e., the “BAR” gene, phosphinothricin acetyl transferase) (White et al., Nucl Acids Res 18: 1062 (1990)) and the 35S terminator. The AtMas promoter, the BAR coding sequence, and the 35S terminator are located at nt 4211 to nt 4679, nt 4680 to nt 5228, and nt 5263 to nt 5488, respectively, of pNOV2374. The vector contains […] recombination components, which were introduced into the binary vector backbone by ligating a blunt-ended cassette containing attR sites, ccdB, and a cholramphenicol resistance marker using the […] Vector Conversion System (LifeTechnologies, Rockville, Md.). The […] cassette was located between nt 126 and 1818 of pNOV2374. The promoter cassettes were inserted through an LR recombination reaction whereby the DNA sequence of pNOV2374 between nt 126 and nt 1818 were removed and replaced with the promoter of interest flanked by att sequences. […] The GIG gene (SEQ ID NO:29) contains the ST-LS1 intron from Solanum tuberosum at nt 385 to nt 576 of GUS (obtained from Dr. Stanton […], Purdue University, and described in Narasimhulu, et al. (1996) Plant Cell 8: 873-886.). […] The treatment was applied as a fine mist to the leaves. Leaf tissue was harvested from plants for the β-glucuronidase (GUS) florescence assay prior to SA application (T0) and at various time intervals after application. For quantitative analysis of promoter activity following induction treatments or in various Arabidopsis tissues and organs, GUS expression is measured florometrically. Tissue samples were harvested and ground in ice cold GUS extraction buffer (50 mM Na2HPO4 pH 7.0, 5 mM DTT, 1 mM Na2EDTA, 0.1% TritonX100, 0.1% sarcosyl). Ground samples were spun in a microfuge at 10,000 rpm for 15 minutes at 4° C. Following centrifugation, the supernatant was removed for the GUS assay and for a protein concentration determination. To measure GUS activity, the plant extract was assayed in GUS assay buffer (50 mM Na2HPO4 pH 7.0, 5 mM DTT, 1 mM Na2EDTA, 0.1% TritonX100, 0.1% sarcosyl, 1 mM 4-Methylumbelliferyl-beta-D-glucuronic acid dihydrate (MUG)), pre-warmed to 37° C. Reactions were incubated, and 100 uL aliquots were removed at 10 minute intervals over 30 minutes to stop the reaction by adding the 100 uL aliquots to tubes containing 900 uL of 2% Na2CO3. The stopped reactions were then read on a Tecan Spectroflourometer at 365 nm excitation and 455 emission wavelengths. Protein concentrations were determined using the BCA assay following the manufacturer's protocol. GUS activity is expressed as pmol MU/mg protein/min.

With O=C(O)c1ccccc1O [SA, salicylic acid] the “GUS Activity Induced by SA” value (2 h) was 52.2 pmol/mg protein/min, the “GUS activity Fold-change relative to T0 (uninduced)” value (2 h) was 4.3 fold and the “GUS Activity Induced by SA” value (4 h) was 72.5 pmol/mg protein/min. The “GUS activity Fold-change relative to T0 (uninduced)” value (4 h) was 6.0 fold, the “GUS Activity Induced by SA” value (8 h) was 194.9 pmol/mg protein/min and the “GUS activity Fold-change relative to T0 (uninduced)” value (8 h) was 16.2 fold. For the same compound, the “GUS Activity Induced by SA” value (24 h) was 205.4 pmol/mg protein/min and the “GUS activity Fold-change relative to T0 (uninduced)” value (24 h) was 17.0 fold.
